Measurements as given in patent publication US6204293A, “Inhibitors of protein isoprenyl transferases” (University of Pittsburgh, priority 1998, dated 2001).
Counter-ions that a name gives are not always drawn.

target: T1, Rat brain protein farnesyltransferase (Rattus norvegicus, UniProt Q02293+Q04631); assay: % inhibition of farnesylation, scintillation proximity assay with biotin-K Ras B fragment; type: biochemical; conditions: Table 1; 1 × 10^-5 M
T1 construct: Rat brain protein farnesyltransferase activity is measured; from tissue; host or cells: rat brain
T1 sequence (Q02293 whole entry, the tested form may be a part, one chain of several): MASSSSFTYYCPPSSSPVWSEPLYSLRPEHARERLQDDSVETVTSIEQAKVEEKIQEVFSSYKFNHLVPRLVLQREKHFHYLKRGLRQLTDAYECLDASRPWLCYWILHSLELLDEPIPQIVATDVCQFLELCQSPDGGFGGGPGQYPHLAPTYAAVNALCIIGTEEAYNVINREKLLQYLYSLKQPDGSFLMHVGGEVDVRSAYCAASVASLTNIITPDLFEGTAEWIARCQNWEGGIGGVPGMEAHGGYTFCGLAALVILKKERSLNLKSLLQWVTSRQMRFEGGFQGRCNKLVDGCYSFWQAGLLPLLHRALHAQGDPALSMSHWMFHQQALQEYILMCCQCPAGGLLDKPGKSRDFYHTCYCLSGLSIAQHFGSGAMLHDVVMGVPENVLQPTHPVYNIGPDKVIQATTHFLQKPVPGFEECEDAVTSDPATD
Text: The ability of the compounds of the invention to inhibit protein farnesyltransferase or protein geranylgeranyltransferase can be measured according to the method of Moores, et al., J. Biol. Chem. 266: 14603 (1991) or the method of Vogt, et al., J. Biol. Chem. 270:660-664 (1995). In addition, procedures for determination of the inhibition of farnesylation of the oncogene protein Ras are described by Goldstein, et al., J. Biol. Chem., 266:15575-15578 (1991) and by Singh in U.S. Pat. No. 5,245,061.
In addition, in vitro inhibition of protein farnesyltransferase may be measured by the following procedure. Rat brain protein farnesyltransferase activity is measured using an Amersham Life Science commercial scintillation proximity assay kit and substituting a biotin-K Ras B fragment (biotin-[…]CO2 H), 0.1 mM final concentration, for the biotin-lamin substrate provided by Amersham. The enzyme is purified according to Reiss, Y., et al., Cell, 62: 81-88 (1990), utilizing steps one through three.
The % inhibition of protein farnesyltransferase was determined for representative compounds of the invention.

Point of comparison: `CSCC[C@H](NC(=O)c1ccc(CNc2cc(C)cc(C)c2)cc1-c1ccccc1)C(=O)O` [Example 709], “% inhibition at 1 × 10^-5 M” value 55%. Against it:
- CSCC[C@H](NC(=O)c1ccc(CNc2ccc(O)cc2)cc1-c1ccccc1)C(=O)O [Example 689] — higher, 73%
- CSCC[C@H](NC(=O)c1ccc(CNc2cccc(N(C)C)c2)cc1-c1ccccc1)C(=O)O [Example 683] — higher, 57%
- C=C[C@@H](CC1CCCCC1)NCc1ccc(C(=O)N[C@@H](CCSC)C(=O)O)c(-c2ccccc2)c1 [Example 664] — higher, 75%

same assay, conditions: Table 2; 1 × 10^-6 M

Point of comparison: `CSCC[C@H](NC(=O)c1ccc(CN(C2CC2)C(C)(C)Cc2ccccc2)cc1-c1ccccc1C)C(=O)O` [Example 315], “% inhibition at 1 × 10^-6 M” value 93%. Against it:
- CSCC[C@H](NC(=O)c1ccc(CN(C)C(C)(C)Cc2ccccc2)cc1-c1ccccc1C)C(=O)O [Example 309] — higher, 98%
- CSCC[C@H](NC(=O)c1ccc(CN(CCc2ccccc2)C(C)C)cc1-c1ccccc1C)C(=O)O [Example 835] — higher, 96%
- CSCC[C@H](NC(=O)c1ccc(CN(C(C)C)C2(Cc3ccccc3)CCC2)cc1-c1ccccc1C)C(=O)O [Example 331] — higher, 98%
- CSCC[C@H](NC(=O)c1ccc(CN(Cc2ccccc2)c2ccccc2SC)cc1-c1ccccc1C)C(=O)[O-].[Li+] [Example 850] — lower, 90%
- CSCC[C@H](NC(=O)c1ccc(CN(Cc2ccc(C(F)(F)F)cc2)c2ccccc2)cc1-c1ccccc1C)C(=O)O [Example 782] — higher, 96%
- CSCC[C@H](NC(=O)c1ccc(CN(C(C)C)C(C)(C)Cc2ccccc2)cc1-c1ccccc1C)C(=O)O [Example 317] — lower, 54%
- COc1ccccc1CNCc1ccc(C(=O)N[C@@H](CCSC)C(=O)O)c(-c2ccccc2)c1 [Example 650] — lower, 68%
- CSCC[C@H](NC(=O)c1ccc(CN[C@H](CO)CC2CCCCC2)cc1-c1ccccc1C)C(=O)O [Example 617] — higher, 99%
- CSCC[C@H](NC(=O)c1ccc(C=Cc2ccccc2Cc2ccccc2)cc1-c1ccccc1C)C(=O)[O-].[Li+] [Example 457] — lower, 92%
- CSCC[C@H](NC(=O)c1ccc(/C=C/c2ccccc2)cc1-c1ccccc1C)C(=O)O [Example 791] — lower, 53%
- CSCC[C@H](NC(=O)c1ccc(CNc2ccccc2C(N)=O)cc1-c1ccccc1)C(=O)O [Example 644] — lower, 54%
- Cc1ccccc1-c1cc(CCc2cccc(Oc3ccccc3)c2)ccc1C(=O)N[C@@H](CC[S+](C)[O-])C(=O)O (stereo partly shown) [Example 460] — lower, 88%
- CSCC[C@H](NC(=O)c1ccc(CN(Cc2cncs2)S(C)(=O)=O)cc1-c1ccccc1C)C(=O)O [Example 878] — higher, 95%
- CSCC[C@H](NC(=O)c1ccc(CNCCN(C(C)C)C(C)C)cc1-c1ccccc1)C(=O)O [Example 636] — lower, 72%
- CSCC[C@H](NC(=O)c1ccc(CN(Cc2ccccc2)c2ccccc2Cl)cc1-c1ccccc1C)C(=O)O [Example 846] — lower, 85%

same assay, conditions: Table 3; 1 × 10^-7 M

With `CSCC[C@H](NC(=O)c1ccc(CCc2ccc(C3CCCCC3)cc2)cc1-c1ccccc1C)C(=O)[O-].[Li+]` [Example 461] the “% inhibition at 1 × 10^-7 M” value was 93%.

same assay, conditions: Table 4; 1 × 10^-8 M

Point of comparison: `CSCC[C@H](NC(=O)c1ccc(CN(CCC2CCCCC2)Cc2ccccc2)cc1-c1ccccc1C)C(=O)[O-].[Li+]` [Example 605], “% inhibition at 1 × 10^-8 M” value 68%. Against it:
- CCSC[C@H](CC1CCCCC1)N(C=O)Cc1ccc(C(=O)N[C@@H](CCSC)C(=O)O)c(-c2ccccc2C)c1 [Example 946] — lower, 52%
- CSCC[C@H](NC(=O)c1ccc(CCc2ccc(Oc3ccc(Cl)cc3)cc2)cc1-c1ccccc1C)C(=O)O [Example 860] — higher, 85%
- CSCC[C@H](NC(=O)c1ccc(CN(C)C(CC2CCCCC2)CC2CCCCC2)cc1-c1ccccc1C)C(=O)O [Example 907] — higher, 79%
- CSCC[C@H](NC(=O)c1ccc(CN(Cc2ccccc2)c2cccc(Cl)c2)cc1-c1ccccc1C)C(=O)O [Example 847] — higher, 85%
- CSCC[C@H](NC(=O)c1ccc(CN(Cc2ccccc2)c2cncnc2)cc1-c1ccccc1C)C(=O)O [Example 836] — higher, 95%
- CSCC[C@H](NC(=O)c1ccc(CN(Cc2cncs2)S(=O)(=O)c2ccc(C)cc2)cc1-c1ccccc1C)C(=O)O [Example 877] — the same, 68%

same assay, conditions: read-out: % inhibition at 0.01 μM (**); Table 6; ** footnote 0.01 μM (title: 0.01 mM)

Point of comparison: `CC[S+]([O-])C[C@H](CC1CCCCC1)OCc1ccc(C(=O)N[C@@H](CCSC)C(=O)O)c(-c2ccccc2C)c1` (stereo partly shown) [Example 1310, Lithium Salt], inhibition at 0.01 µM 90%. Against it:
- CCCOC[C@H](CC1CCCCC1)OCc1ccc(C(=O)N[C@@H](CCSC)C(=O)O)c(-c2ccccc2C)c1 [Example 1305, N-[4-(3-Cyclohexyl-1-propoxyprop-2-yloxymethyl)-2-(2-methylphenyl)benzoyl]methionine Lithium Salt] — higher, 91%

same assay, conditions: read-out: % inhibition at 0.1 μM (*); Table 6; * footnote 0.1 μM (title: 0.1 mM)

Point of comparison: `CSCC[C@H](NC(=O)c1ccc(COC[C@@H](O)CC2CCCCC2)cc1-c1ccccc1C)C(=O)O` [Example 1314, N-[4-(3-Cyclohexyl-2-hydroxyprop-1-yloxymethyl)-2-(2-methylphenyl)benzoyl]methionine Lithium Salt], inhibition at 0.1 µM 96%. Against it:
- CSCC[C@H](NC(=O)c1ccc(COC(c2ccccc2)C2CCOCC2)cc1-c1ccccc1C)C(=O)O (stereo partly shown) [Example 1283, N-[4-(1-(4-tetrahydropyranyl)benzyloxymethyl-2-(2-methylphenyl)benzoyl]methioninelithium salt] — lower, 74%

same assay, conditions: read-out: % inhibition at 1 × 10^-6 M

For `CSCC[C@H](NC(=O)c1ccc(OCCC2CCCCC2)cc1-c1ccccc1C)C(=O)O` [Example 552, N-[4-(2-cyclohexylethoxy)-2-(2-methylphenyl)benzoyl]methionine, lithium salt], the inhibition at 1 µM was 88%.

same assay, conditions: read-out: % inhibition at 1 × 10^-6 M; Table 2; 1 × 10^-6 M

`CSCC[C@H](NC(=O)c1ccc(OC/C=C(\C)CC/C=C(\C)CCC=C(C)C)cc1-c1ccccc1C)C(=O)O` [Example 547, N-[4-farnesyloxy-2-(2-methylphenyl)benzoyl]methionine, lithium salt] gave an inhibition at 1 µM of 91%.

same assay, conditions: read-out: % inhibition at 1 × 10^-7 M

Point of comparison: `CSCC[C@H](NC(=O)c1ccc(COc2ccc(Oc3ccccc3)cc2)cc1-c1ccccc1C)C(=O)O` [Example 795, N-[4-(4-phenoxyphenoxymethyl)-2-(2-methylphenyl)benzoyl]methionine lithium salt], inhibition at 0.1 µM 87%. Against it:
- CSCC[C@H](NC(=O)c1ccc(COCc2cnc(C(C)(C)C)s2)cc1-c1ccccc1C)C(=O)O [Example 895, N-[4-(2-t-butylthiazol-5-ylmethoxymethyl)-2-(2-methylphenyl)benzoyl]methionine lithium salt] — higher, 92%
- CSCC[C@H](NC(=O)c1ccc(COCCC2CCCCC2)cc1-c1ccccc1C)C(=O)O [Example 594, N-[4-(2-cyclohexylethoxymethyl)-2-(2-methylphenyl)benzoyl]methionine lithium salt] — higher, 95%
- CSCC[C@H](NC(=O)c1ccc(COCc2ccc(-c3ccc(C(F)(F)F)cc3)o2)cc1-c1ccccc1C)C(=O)O [Example 445, N-[4-(5-(4-trifluoromethylphenyl)furan-2-ylmethoxymethyl)-2-(2-methylphenyl)benzoyl]methionine lithium salt] — higher, 94%

same assay, conditions: read-out: % inhibition at 1 × 10^-7 M; Table 3; 1 × 10^-7 M

Point of comparison: `COc1ncc(COCc2ccc(C(=O)N[C@@H](CCSC)C(=O)O)c(-c3ccccc3C)c2)s1` [Example 896, N-[4-(2-methoxythiazol-5-ylmethoxymethyl)-2-(2-methylphenylbenzoyl]methioninelithium salt], inhibition at 0.1 µM 96%. Against it:
- CSCC[C@H](NC(=O)c1ccc(COCCCCc2ccccc2)cc1-c1ccccc1C)C(=O)O [Example 601] — lower, 92%
- CSCC[C@H](NC(=O)c1ccc(COCc2ccc(C)o2)cc1-c1ccccc1C)C(=O)O [Example 532, N-[4-(5-methylfuran-2-ylmethoxymethyl)-2-(2-methylphenyl)benzoyl]methioninelithium salt] — lower, 88%
- CSCC[C@H](NC(=O)c1ccc(COCc2ccc(-c3ccc(F)c(Cl)c3)o2)cc1-c1ccccc1C)C(=O)O [Example 450, N-[4-(5-(3-chloro-4-fluorophenyl)furan-2-ylmethoxymethyl)-2-(2-methylphenyl)benzoyl]methionine lithium salt] — the same, 96%

same assay, conditions: read-out: % inhibition at 1 × 10^-8 M; Table 4; 1 × 10^-8 M

With `CCCCC(OCc1ccc(C(=O)N[C@@H](CCSC)C(=O)O)c(-c2ccccc2C)c1)c1cncs1` (stereo partly shown) [Example 985] the inhibition at 0.01 µM was 89%.
